Active and inactive are the calls of the source.
Experiments:
[1] = target: T1, Protein skinhead-1 (Caenorhabditis elegans, UniProt P34707); format: functional
T1 sequence (P34707 whole entry): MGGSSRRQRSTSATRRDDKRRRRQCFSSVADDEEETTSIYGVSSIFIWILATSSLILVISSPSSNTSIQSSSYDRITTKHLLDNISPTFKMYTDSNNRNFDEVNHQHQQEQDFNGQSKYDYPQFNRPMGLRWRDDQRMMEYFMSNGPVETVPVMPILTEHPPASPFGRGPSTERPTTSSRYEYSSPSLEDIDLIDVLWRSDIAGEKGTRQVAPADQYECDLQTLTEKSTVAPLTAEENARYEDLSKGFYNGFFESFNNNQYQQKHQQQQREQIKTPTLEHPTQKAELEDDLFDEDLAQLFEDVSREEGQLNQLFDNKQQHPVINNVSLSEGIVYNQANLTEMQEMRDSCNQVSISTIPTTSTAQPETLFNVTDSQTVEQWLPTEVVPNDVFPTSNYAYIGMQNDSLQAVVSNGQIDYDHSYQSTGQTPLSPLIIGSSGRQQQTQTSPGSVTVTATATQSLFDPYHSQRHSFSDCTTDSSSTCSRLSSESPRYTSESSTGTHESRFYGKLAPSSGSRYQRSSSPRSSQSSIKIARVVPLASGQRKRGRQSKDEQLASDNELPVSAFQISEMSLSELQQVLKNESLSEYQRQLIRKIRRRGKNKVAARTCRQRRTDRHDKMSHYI

[2] = target: T2, Short transient receptor potential channel 4 (Mus musculus, UniProt Q9QUQ5); assay: mouse TRPC4 channel inhibitors, dose response, cell-based, HEK293 TRPC4/mu-opioid, Fluo-4 calcium (AID 434942); format: functional;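 further: potency of inhibitors blocking the TRPC4 calcium response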
T2 sequence (Q9QUQ5 whole entry): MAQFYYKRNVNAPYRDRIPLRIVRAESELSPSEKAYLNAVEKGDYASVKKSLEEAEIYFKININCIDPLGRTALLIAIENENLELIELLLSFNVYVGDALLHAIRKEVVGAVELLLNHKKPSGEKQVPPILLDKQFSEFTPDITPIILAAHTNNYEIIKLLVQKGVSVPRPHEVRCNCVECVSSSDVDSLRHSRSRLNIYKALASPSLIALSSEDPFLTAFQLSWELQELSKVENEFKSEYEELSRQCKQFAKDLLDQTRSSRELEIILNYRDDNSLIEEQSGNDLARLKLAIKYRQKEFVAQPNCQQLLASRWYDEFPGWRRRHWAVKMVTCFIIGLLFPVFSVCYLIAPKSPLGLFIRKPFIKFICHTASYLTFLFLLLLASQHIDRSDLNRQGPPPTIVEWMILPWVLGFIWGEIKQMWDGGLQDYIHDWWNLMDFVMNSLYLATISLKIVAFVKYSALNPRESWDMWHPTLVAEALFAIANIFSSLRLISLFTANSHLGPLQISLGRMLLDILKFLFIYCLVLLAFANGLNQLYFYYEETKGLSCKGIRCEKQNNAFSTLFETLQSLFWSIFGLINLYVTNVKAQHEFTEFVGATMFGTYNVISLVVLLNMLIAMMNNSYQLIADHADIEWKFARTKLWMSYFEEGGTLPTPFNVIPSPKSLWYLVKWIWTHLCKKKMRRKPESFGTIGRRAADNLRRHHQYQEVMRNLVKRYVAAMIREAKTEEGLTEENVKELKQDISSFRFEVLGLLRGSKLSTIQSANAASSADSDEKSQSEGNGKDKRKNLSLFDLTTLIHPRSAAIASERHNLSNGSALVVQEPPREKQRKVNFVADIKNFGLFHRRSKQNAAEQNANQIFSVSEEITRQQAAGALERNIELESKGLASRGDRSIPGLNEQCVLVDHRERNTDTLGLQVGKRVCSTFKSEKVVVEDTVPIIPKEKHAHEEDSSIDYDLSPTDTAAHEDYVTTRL

[3] = system: H4; assay: Luminescence Cell-Based Dose Response HTS to Identify Activators of 5'UTR Stem-Loop Driven Prion Protein mRNA Translation in H4 Neuroglioblastoma Cells. [Related pubchem assays: 1829 (Project Summary), 1814 (Primary HTS)]; format: functional; settings: Homo sapiens
[4] = Luminescence Cell-Based Dose Confirmation HTS to Identify Activators of 5'UTR Stem-Loop Driven Alpha-Synuclein mRNA Translation in H4 Neuroglioblastoma Cells. [Related pubchem assays: 1829 (Project Summary), 1814 (Primary HTS)]; format: functional
[5] = Luminescence Cell-Based Dose Response HTS to Identify Activators of Luciferase Translation or Activity in H4 […] Cells. [Related pubchem assays: 1829 (Project Summary), 1814 (Primary HTS)]; format: functional
[6] = target: T3, Polyadenylate-binding protein 1 (Homo sapiens, UniProt P11940); assay: PABP1 MLLE–PAM2 binding inhibitor potency, dose response, biochemical, fluorescence polarization, FITC-PAM2 peptide (AID 602259); format: functional; settings: read-out: IC50_Mean
T3 sequence (P11940 whole entry): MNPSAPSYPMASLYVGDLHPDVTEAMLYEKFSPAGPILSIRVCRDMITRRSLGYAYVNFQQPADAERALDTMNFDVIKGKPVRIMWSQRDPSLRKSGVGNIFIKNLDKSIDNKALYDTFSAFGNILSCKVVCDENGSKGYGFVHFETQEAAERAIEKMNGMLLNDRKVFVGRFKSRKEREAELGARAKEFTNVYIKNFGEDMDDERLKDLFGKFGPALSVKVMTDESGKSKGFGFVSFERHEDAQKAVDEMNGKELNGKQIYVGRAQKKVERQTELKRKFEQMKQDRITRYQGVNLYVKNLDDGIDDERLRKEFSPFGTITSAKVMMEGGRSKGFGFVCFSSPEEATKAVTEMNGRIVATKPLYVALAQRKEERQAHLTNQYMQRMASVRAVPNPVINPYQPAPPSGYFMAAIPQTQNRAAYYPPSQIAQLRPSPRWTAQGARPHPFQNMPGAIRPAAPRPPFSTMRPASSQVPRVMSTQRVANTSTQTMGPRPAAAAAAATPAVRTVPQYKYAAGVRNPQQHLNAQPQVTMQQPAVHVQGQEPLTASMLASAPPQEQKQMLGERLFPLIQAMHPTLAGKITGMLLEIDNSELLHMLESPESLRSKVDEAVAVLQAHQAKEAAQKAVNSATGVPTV

[7] = target: T3, Polyadenylate-binding protein 1; assay: PABP1 MLLE–PAM2 interaction inhibitors, dose response, miRNA deadenylation inhibitor project, biochemical, fluorescence polarization, Cy5-PAM2 peptide, secondary (AID 602260); format: functional; settings: read-out: IC50_Mean
[8] = target: Induced myeloid leukemia cell differentiation protein Mcl-1 (Homo sapiens, UniProt Q07820); format: functional
Sequence of Induced myeloid leukemia cell differentiation protein Mcl-1 (Q07820 whole entry): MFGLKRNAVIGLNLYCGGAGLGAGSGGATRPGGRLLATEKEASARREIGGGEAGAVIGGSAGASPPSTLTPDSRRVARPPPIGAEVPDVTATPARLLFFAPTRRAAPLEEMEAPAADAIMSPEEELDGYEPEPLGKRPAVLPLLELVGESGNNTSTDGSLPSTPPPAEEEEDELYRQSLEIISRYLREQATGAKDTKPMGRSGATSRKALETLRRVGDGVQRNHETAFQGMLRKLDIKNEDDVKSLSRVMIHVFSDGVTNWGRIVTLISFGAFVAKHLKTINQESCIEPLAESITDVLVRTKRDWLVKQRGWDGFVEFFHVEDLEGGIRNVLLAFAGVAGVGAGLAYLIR

[9] = system: BJ; assay: cells; format: functional, cell-based; settings: Homo sapiens
[10] = cytotoxicity toward DRD oncogenic fibroblasts, dose response, cell-based, non-viral oncogenic, luminescence (AID 1934); format: functional; settings: Homo sapiens
[11] = system: BJ; assay: cytotoxicity toward BJ-TERT-LT-ST fibroblasts, dose response, cell-based, RAS-independent, luminescence (AID 1935); format: functional; settings: Homo sapiens;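 further: BJ fibroblasts immortalized with TERT plus LT and ST oncogenes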
[12] = system: BJ; assay: cytotoxicity toward BJ-TERT fibroblasts, dose response, cell-based, RAS-independent, luminescence (AID 1933); format: functional; settings: Homo sapiens
[13] = target: Nonstructural protein 1 (Influenza A virus, UniProt Q194T2); format: functional, Influenza A virus (A/California/07/2009(H1N1))
Sequence of Nonstructural protein 1 (Q194T2 whole entry): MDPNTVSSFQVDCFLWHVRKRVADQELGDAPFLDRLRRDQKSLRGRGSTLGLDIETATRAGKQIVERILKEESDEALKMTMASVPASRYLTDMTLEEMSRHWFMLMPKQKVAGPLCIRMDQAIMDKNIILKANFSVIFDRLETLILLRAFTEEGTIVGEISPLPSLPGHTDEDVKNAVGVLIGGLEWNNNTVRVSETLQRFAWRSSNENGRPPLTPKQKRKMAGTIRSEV

[14] = system: INS1; assay: beta cell apoptosis inhibitors, cytokine rescue, dose response, luminescence, retest (AID 449756); format: functional, cell-based; settings: Rattus norvegicus;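 further: cell death triggered by IL-1 beta plus TNF-alpha plus IFN-gamma mixture; protective hits raise ATP signal compared with cytokine alone wells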
[15] = target: Fatty acid synthase (Homo sapiens, UniProt P49327); assay: FAS thioesterase domain inhibitors, dose response, biochemical, kinetic fluorescence intensity (AID 624326); format: functional;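 further: rate of fluorescence rise from hydrolysis of a fluorogenic O-methyl fluorescein ester substrate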
Sequence of Fatty acid synthase (P49327 whole entry, the tested form may be a part): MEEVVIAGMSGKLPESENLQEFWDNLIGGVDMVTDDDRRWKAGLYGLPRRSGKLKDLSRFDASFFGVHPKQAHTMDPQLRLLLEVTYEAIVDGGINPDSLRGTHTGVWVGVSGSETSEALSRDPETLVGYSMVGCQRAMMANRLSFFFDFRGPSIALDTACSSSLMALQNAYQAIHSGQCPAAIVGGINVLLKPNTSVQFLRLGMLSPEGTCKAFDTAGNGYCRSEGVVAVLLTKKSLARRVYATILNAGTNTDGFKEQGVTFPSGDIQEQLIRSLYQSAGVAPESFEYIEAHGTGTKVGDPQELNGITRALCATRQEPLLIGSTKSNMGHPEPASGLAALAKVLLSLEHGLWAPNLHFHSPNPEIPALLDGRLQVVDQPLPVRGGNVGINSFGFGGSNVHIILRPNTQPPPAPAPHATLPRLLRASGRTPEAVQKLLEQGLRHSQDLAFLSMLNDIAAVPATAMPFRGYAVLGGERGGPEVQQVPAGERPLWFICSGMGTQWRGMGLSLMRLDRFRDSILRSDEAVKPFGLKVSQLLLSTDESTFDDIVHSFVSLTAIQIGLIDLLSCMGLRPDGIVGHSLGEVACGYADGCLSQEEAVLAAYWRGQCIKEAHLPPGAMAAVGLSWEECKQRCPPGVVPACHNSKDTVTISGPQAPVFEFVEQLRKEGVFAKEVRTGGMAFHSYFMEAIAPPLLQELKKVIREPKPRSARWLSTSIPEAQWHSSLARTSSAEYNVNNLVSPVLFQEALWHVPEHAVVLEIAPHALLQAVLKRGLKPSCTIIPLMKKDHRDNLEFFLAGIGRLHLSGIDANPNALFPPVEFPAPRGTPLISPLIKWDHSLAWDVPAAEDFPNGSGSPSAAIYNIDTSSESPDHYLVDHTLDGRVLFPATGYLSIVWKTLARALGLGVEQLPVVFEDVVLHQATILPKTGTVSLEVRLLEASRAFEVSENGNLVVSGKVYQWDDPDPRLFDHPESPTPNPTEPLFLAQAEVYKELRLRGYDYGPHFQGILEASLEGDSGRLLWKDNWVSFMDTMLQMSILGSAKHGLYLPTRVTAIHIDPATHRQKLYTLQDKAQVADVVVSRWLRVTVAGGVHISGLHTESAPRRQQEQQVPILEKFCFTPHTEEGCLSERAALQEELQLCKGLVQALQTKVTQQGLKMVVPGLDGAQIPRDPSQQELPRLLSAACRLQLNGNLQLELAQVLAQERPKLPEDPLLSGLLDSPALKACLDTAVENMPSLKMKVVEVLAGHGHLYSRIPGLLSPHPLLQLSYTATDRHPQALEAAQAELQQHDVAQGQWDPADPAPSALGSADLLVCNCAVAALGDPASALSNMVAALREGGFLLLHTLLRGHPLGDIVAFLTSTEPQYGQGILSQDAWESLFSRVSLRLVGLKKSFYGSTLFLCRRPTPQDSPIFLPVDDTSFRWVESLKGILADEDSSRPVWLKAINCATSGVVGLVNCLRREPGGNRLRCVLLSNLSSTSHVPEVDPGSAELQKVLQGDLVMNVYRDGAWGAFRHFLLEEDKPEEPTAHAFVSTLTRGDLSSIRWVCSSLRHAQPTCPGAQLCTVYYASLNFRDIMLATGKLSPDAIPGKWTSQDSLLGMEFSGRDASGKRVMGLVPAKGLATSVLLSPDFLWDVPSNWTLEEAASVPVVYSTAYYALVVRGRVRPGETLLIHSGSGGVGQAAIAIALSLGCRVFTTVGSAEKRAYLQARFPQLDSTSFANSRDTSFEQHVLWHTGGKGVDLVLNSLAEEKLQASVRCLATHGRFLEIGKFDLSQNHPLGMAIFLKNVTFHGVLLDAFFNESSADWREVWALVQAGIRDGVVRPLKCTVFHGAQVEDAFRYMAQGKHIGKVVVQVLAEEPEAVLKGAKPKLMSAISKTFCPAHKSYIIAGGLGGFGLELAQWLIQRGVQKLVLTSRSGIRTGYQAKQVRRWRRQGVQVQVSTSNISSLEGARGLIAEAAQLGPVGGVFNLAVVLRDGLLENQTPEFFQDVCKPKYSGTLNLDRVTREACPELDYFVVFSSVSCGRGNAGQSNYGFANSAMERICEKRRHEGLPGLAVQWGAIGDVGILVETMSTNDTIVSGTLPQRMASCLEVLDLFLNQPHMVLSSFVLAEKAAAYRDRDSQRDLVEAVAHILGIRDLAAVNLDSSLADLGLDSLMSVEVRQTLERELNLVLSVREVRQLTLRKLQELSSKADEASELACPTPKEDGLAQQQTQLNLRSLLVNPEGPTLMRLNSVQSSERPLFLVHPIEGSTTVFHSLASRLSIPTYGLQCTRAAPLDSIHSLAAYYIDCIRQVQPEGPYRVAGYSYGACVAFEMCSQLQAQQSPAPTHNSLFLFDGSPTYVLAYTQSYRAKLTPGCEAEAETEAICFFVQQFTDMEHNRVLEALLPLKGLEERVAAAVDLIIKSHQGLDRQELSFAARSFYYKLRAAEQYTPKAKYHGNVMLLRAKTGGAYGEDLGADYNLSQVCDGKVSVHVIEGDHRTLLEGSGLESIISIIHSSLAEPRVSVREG

[16] = target: T4, Long-chain-fatty-acid--AMP ligase FadD28 (Mycobacterium tuberculosis, UniProt P9WQ59); assay: Fluorescence polarization aasay to screen for inhibitors that compete for the binding of FadD28 to a bisubstrate Measured in Biochemical System Using Plate Reader - 2147-01_Inhibitor_Dose_CherryPick_Activity.; format: functional, Mycobacterium tuberculosis H37Rv
T4 sequence (P9WQ59 whole entry): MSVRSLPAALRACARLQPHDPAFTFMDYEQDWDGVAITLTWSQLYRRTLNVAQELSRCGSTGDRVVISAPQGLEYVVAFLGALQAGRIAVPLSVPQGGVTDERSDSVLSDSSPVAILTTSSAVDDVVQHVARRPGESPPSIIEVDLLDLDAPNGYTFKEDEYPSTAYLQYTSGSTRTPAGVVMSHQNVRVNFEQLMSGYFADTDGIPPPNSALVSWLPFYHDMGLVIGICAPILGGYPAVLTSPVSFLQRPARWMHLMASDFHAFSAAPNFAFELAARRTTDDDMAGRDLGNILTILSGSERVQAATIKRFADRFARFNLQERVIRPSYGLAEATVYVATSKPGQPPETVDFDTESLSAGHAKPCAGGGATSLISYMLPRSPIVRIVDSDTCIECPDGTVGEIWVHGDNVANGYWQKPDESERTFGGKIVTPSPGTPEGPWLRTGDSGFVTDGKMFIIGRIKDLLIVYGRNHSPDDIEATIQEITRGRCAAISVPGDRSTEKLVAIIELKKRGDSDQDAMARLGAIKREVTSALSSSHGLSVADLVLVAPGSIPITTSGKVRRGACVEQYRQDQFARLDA

[17] = intracellular Trypanosoma cruzi inhibitors in host cells – cell-based, plate reader, cherry-pick samples, set 3, dose response (AID 651818); format: functional;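 further: compounds incubated with infected cells for about four days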
[18] = inhibitors of HIV Env-driven cell fusion, dose response, cherry-pick (AID 652057); format: functional, cell-based
[19] = inhibitors of clade B AD8 Env fusion, dose response, cell-based, cherry-pick (AID 652062); format: functional;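 further: luciferase signal from cell-cell fusion driven by HIV-1 clade B AD8 Env; potency is for inhibitors of fusion seen as a drop in luminescence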
[20] = target: DNA dC->dU-editing enzyme APOBEC-3G (Homo sapiens, UniProt Q9HC16); assay: Dose Response confirmation of small molecule APOBEC3G DNA Deaminase Inhibitors via a fluorescence-based single-stranded DNA deaminase assay. [Related pubchem assays (depositor defined):AID493012, AID493028]; format: functional
Sequence of DNA dC->dU-editing enzyme APOBEC-3G (Q9HC16 whole entry): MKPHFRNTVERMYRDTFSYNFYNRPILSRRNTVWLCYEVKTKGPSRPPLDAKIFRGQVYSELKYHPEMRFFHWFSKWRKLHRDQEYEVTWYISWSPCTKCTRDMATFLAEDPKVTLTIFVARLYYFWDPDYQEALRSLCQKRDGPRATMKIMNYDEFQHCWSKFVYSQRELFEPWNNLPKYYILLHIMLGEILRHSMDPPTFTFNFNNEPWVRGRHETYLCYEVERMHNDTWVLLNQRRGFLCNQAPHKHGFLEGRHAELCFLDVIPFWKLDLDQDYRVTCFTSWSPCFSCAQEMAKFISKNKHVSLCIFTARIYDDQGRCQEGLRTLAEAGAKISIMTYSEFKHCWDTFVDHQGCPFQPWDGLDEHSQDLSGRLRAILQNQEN

[21] = NIH-3T3 fibroblast cytotoxicity, dose response, cytotoxicity control, cell-based, fluorescence, Alamar Blue, secondary assay (AID 2327); format: functional;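 further: NIH-3T3 mouse fibroblasts cultured with fluconazole at 8 µg/mL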
[22] = C. albicans growth with fluconazole, confirmation, fluorescence, retest (AID 2467); format: functional, cell-based
[23] = target: Large T antigen (Simian virus 40, UniProt P03070); format: functional, Betapolyomavirus macacae;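 further: Confirmatory-stage PubChem screen for compounds that inhibit SV40 T antigen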
Sequence of Large T antigen (P03070 whole entry): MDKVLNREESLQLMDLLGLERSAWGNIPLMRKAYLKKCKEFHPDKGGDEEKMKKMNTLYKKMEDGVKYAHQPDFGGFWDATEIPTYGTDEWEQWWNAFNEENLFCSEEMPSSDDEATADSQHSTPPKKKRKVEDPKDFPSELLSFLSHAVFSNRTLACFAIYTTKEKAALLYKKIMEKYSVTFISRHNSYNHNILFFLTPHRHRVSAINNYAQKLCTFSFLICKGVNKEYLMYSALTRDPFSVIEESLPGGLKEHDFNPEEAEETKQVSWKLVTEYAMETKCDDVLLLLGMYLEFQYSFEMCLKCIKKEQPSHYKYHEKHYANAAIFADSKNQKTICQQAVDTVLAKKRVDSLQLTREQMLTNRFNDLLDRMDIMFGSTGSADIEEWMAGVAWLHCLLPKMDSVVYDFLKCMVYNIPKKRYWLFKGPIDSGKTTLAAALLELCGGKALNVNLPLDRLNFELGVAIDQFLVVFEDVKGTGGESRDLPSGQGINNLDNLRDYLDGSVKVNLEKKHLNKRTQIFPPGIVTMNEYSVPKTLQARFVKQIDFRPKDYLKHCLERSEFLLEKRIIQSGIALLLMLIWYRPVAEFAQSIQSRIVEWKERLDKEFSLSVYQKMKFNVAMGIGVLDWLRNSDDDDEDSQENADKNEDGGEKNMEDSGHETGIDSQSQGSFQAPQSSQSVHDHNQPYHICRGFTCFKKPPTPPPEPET

[24] = target: FAD-linked sulfhydryl oxidase ALR (Homo sapiens, UniProt P55789); assay: inhibitors of human ALR sulfhydryl oxidase, dose response, biochemical, H2O2 detection, luminescence, cherry-pick (AID 493248)
Sequence of FAD-linked sulfhydryl oxidase ALR (P55789 whole entry): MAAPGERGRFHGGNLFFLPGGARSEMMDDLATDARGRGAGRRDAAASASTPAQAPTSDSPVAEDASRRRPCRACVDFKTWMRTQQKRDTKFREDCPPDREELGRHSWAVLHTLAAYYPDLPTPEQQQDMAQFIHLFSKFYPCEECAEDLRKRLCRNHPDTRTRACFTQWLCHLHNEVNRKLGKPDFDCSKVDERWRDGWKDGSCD

## CCc1nc2ccccc2n1CC(=O)N(C(C)CC)C1CCS(=O)(=O)C1 (centres undefined)
[1]
  IC50: > 100 µM (inactive)

## COC(=O)c1cn(NC(=O)C2COc3ccccc3O2)c(=O)c2ccccc12 (centres undefined)
[1]
  IC50: > 100 µM (inactive)

## Cn1c(-c2ccc(F)cc2)cnc1NCc1ccc(F)cc1F
[2]
  EC50: 2.66 µM (active)

## O=C(CSc1nc(O)c(C2CCCCC2)c(O)n1)NCC1CCCO1 (centres undefined)
[1]
  IC50: > 100 µM (inactive)

## CC(Sc1nnc(-c2cccnc2)n1-c1ccccc1)C(=O)NCc1ccc2c(c1)OCO2 (centres undefined)
[3]
  EC50: 38 µM (active)
[4]
  EC50: 9.46 µM (active)
[5]
  EC50: 16.5 µM (active)

## CNc1sc(C(=O)c2ccccc2F)c(N)c1-c1nc2ccccc2s1
[6]
  IC50: 49.5 µM (inactive)
[7]
  IC50: > 66 µM (inactive)
[8]
  IC50: 4.92 µM (active)

## CCC(c1nnnn1CCOC)N1CCN(Cc2ccccc2)CC1 (centres undefined)
[1]
  IC50: > 100 µM (inactive)

## COC(=O)CSc1nnc(SCc2ccc(OC)cc2)s1
[1]
  IC50: > 100 µM (inactive)

## CC(NC(=O)c1ccco1)C(c1cccs1)N1CCN(c2ccccc2)CC1 (centres undefined)
[2]
  EC50: 0.376 µM (active)

## O=C(Nc1cccc2ccccc12)c1onc2c1CCCC2
[3]
  EC50: > 120 µM (not active)
[4]
  EC50: 0.192 µM (active)
[5]
  EC50: 78.7 µM (active)

## CC(C)CN=C(S)NC1CC2CCCC(C1)N2C1CCCCC1 (centres undefined)
[3]
  EC50: 44.3 µM (active)
[4]
  EC50: > 120 µM (not active)
[5]
  EC50: > 120 µM (not active)

## O=C(Cn1c2ccccc2c(=O)c2cc([N+](=O)[O-])ccc21)Nc1ccccc1Cl
[9]
  EC50: > 150 µM (not active)
[10]
  EC50: > 150 µM (inconclusive)
[11]
  EC50: > 75 µM (inconclusive)
[12]
  EC50: > 150 µM (not active)

## CC1=NN(c2ccccc2)C(=O)/C1=C/c1ccc[nH]1
[13]
  IC50: 33 µM (active)

## O=C(Nc1ccc2c(c1)OCO2)c1ccc(Br)o1
[3]
  EC50: > 120 µM (not active)
[4]
  EC50: 0.165 µM (active)
[5]
  EC50: > 120 µM (not active)

## CCn1c(=O)c([N+](=O)[O-])c(N2CCN(Cc3ccc4c(c3)OCO4)CC2)c2ccccc21
[14]
  AC50: 26.1 µM (active)
[15]
  IC50: 1.8 µM (active)

## CSC(=NCCCN1CCOCC1)NS(=O)(=O)c1cccs1
[1]
  IC50: > 100 µM (inactive)

## Cc1ccc(C(C(=O)NC(C)(C)C)N(C(=O)CCC(=O)Nc2ccccn2)c2ccccc2F)cc1 (centres undefined)
[2]
  EC50: 2.99 µM (active)

## COc1ccc(C(=O)NCCc2c[nH]c3ccccc23)cc1S(=O)(=O)N1CCCCC1C (centres undefined)
[16]
  AC50: 2.97 µM (active)

## COc1ccc(S(=O)(=O)Nc2ccc3c(c2)CC(=O)N([C@@H](C)CO)C[C@H](C)[C@@H](CN(C)Cc2ccc(-c4ccccc4)cc2)O3)cc1
[17]
  AC50: 2.07 µM (active)

## CCc1nc2ccc(C(=O)NCCCn3ccnc3)cn2c1N(C)Cc1cc2ccccc2s1
[16]
  AC50: 74.3 µM (active)

## C[C@H]1CN([C@@H](C)CO)C(=O)Cc2cc(NC(=O)Cc3ccccc3)ccc2O[C@H]1CN(C)Cc1ccc(-c2ccccc2)cc1
[17]
  AC50: 2.79 µM (active)

## C[C@@H]1CN([C@H](C)CO)C(=O)c2cccc(NS(=O)(=O)c3cccs3)c2O[C@@H]1CN(C)C(=O)Nc1ccc(C(F)(F)F)cc1
[17]
  AC50: 8.07 µM (active)

## C[C@@H]1CN([C@H](C)CO)C(=O)Cc2cc(NS(=O)(=O)c3ccc(Cl)cc3)ccc2O[C@@H]1CN(C)Cc1ccc(Cl)c(Cl)c1
[17]
  AC50: 3.44 µM (active)

## C[C@H]1CN([C@@H](C)CO)C(=O)c2cc(NC(=O)Nc3ccc(C(F)(F)F)cc3)ccc2O[C@H]1CN(C)Cc1ccc2c(c1)OCO2
[17]
  AC50: 4.18 µM (active)

## C[C@@H]1CN([C@H](C)CO)C(=O)c2cc(NC(=O)Nc3cccc4ccccc34)ccc2O[C@H]1CN(C)Cc1ccc(-c2ccccc2)cc1
[17]
  AC50: 2.17 µM (active)

## CC(C)NC(=O)Nc1ccc2c(c1)C(=O)N([C@H](C)CO)C[C@@H](C)[C@@H](CN(C)C(=O)CCC(F)(F)F)OCCCC[C@@H](C)O2
[18]
  AC50: < 0.26 µM (active)
[19]
  AC50: 1.02 µM (active)

## Cc1cccc(S(=O)(=O)N/N=c2\sc3ccccc3n2C)c1
[3]
  EC50: 23.2 µM (active)
[4]
  EC50: 5.13 µM (active)
[5]
  EC50: 10.1 µM (active)

## Oc1ccc(/C=N/n2c(S)nnc2COc2ccccc2)cc1O
[20]
  IC50: 2.1 µM (active)
[21]
  EC50: 24.6 µM (active)
[22]
  EC50: > 38 µM (not active)
[23]
  IC50: 6.29 µM (active)
[24]
  AC50: 0.005 µM (active)

Source: ChEMBL document CHEMBL1201862, “PubChem BioAssay data set” (2004)
